Measured values reported in patent publication US20130324493A1, “COMPOSITIONS COMPRISING NINGNANMYCIN AND USES THEREFOR” (North Carolina State University, priority 2012, published 2013).
Converted amounts (≈) assume the structure as drawn. Where two headings read alike, the source gives them in different places.

Experiments:
Pantoea ananatis = experiment: Preliminary in vitro antibacterial study; format: cell-based; details: ningnanmycin at 100 ug/ml
Acidovorax aveane = experiment: Preliminary in vitro antibacterial study; format: cell-based; details: ningnanmycin at 100 ug/ml
Fish = details: species not given; cited from earlier work
[1] = test system: M. griesea (turf gray leaf pot); experiment: Preliminary in vitro experiment; format: cell-based
green algae = details: green algae, 72 h; cited from earlier work
creeping bentgrass = details: field plots treated with ningnanmycin, 2010 and 2011
[2] = test system: brown patch (Rhizoctonia solani AG2-2IIIB); experiment: Preliminary field experiment, brown patch; format: in vivo; details: creeping bentgrass
P. aphanidermatum = experiment: In vitro activity on turfgrass strains; format: cell-based, Pythium aphanidermatum
[3] = test system: Ophiosphaerella herpotricha (spring dead spot); experiment: Preliminary in vitro experiment; format: cell-based
X. translucent = experiment: Preliminary in vitro antibacterial study; format: cell-based
mammals = details: Hu et al. 1997; cited from earlier work
[4] = test system: Rhizoctonia solani (AG2-2IIIB); experiment: In vitro activity; format: cell-based; details: AG2-2IIIB causing brown patch on creeping bentgrass
earthworms = details: cited from earlier work
honey bee = details: cited from earlier work
guinea pig = details: cited from earlier work
rabbit [5] = details: cited from earlier work
anthracnose (C. cereale) = experiment: Field efficacy test, control of anthracnose on putting green turf; format: in vivo, 'Dominant Plus' creeping bentgrass; details: for Turf quality: 1-to-9 scale (9 = best), anthracnose trial; for anthracnose control (in words): 2010, August
[6] = test system: Magnaporthe poae (summer patch); format: cell-based; details: preliminary experiment
Xanthomonas pruni = experiment: Preliminary in vitro antibacterial study; format: cell-based; details: ningnanmycin at 100 ug/ml
rat [7] = details: cited from earlier work
rabbit [8] = details: cited from earlier work; remark: listed apart in the source
Sclerotinia homoeocarpa = experiment: In vitro sensitivity assay (radial growth on fungicide-amended PDA); format: cell-based; details: Clarireedia homoeocarpa
Experimental: (§1) Three isolates of S. homoeocarpa and two isolates of C. cereale were selected to evaluate ningnanmycin (Ningnanmycin 10WP, Deqiang Biological Co., LTD. Harbin, Helongjiang, China) in vitro activities using 5 three-fold dilutions from 0.81 to 0.01 μg a.i./ml. […] Based on preliminary experiments, five dilutions of triticonazole were used, ranging from 0.81 to 0.01 μg a.i/ml for isolates of S. homoeocarpa and from 6.25 to 0.01 μg a.i./ml for isolates of C. cereale. All isolates were prepared for long-term storage on pieces of dried filter paper maintained at −80° C. Filter paper sections containing each isolate were removed from −80° C. storage and placed on PDA amended with 0.05 μg/ml each of chloramphenicol, streptomycin, and tetracycline (PDA+++). After 3 days, mycelium-containing plugs (1×1 cm) were transferred to water agar for another 2 days. Then, water agar plugs (0.45 cm diameter) were cut from the periphery of the colony using a cork borer and placed on the center of Petri dishes containing non-amended PDA and PDA amended with the serial concentrations of each fungicide with three replicates per isolate. Radial growth was measured after three days (72 h) incubation at room temperature for isolates of S. homoeocarpa and seven days for isolates of C. cereale. Relative Growth (RG) was calculated by dividing colony diameter on amended PDA by that on the non-amended PDA. EC50 values were then calculated using the method described by Secor et al. (Fungicide resistance assays for fungal plant pathogens. Methods Mol Biol. 835:385-392, 2012). The in vitro sensitivity assay repeated twice and EC50 value of each isolates was determined as the mean of EC50 values from two assays.

Colletotrichum cereale = experiment: as above; format: cell-based
Experimental: as §1

rat [9] = details: cited from earlier work; remark: listed apart in the source

Compound: CNCC(=O)NC(CO)C(=O)NC1C(C(N)=O)OC(n2ccc(N)nc2=O)C(O)C1O [ningnanmycin, 4-sarcosinamido-L-serinamido-4-deoxy-β-D-pyranoglucuronamido]
- in vitro activity (Pantoea ananatis): did not show any in vitro activity
- in vitro activity (Acidovorax aveane): did not show any in vitro activity
- Fish LC50 (96 h) (Fish): >1,000 mg/L
- in vitro activity [1]: demonstrated in vitro activity
- Aquatic plants EC50 (green algae): 12.0 mg/L (72 h)
- plant growth regulator effects (creeping bentgrass): no plant growth regulator effects were observed
- efficacy against brown patch [2]: little to no efficacy
- in vitro activity (P. aphanidermatum; concentration not given): no in vitro activity
- activity against strains infecting turfgrass (P. aphanidermatum; ningnanmycin at 100 ppm): not been able to detect any activity
- in vitro activity [3]: demonstrated in vitro activity
- in vitro activity (X. translucent; ningnanmycin at 100 ug/ml, preliminary study): did not show any in vitro activity
- activity against strains infecting turfgrass (X. translucent; ningnanmycin at 100 ppm): not been able to detect any activity
- carcinogenicity, reproductive toxicity, developmental effects (mammals): no carcinogenicity, reproductive toxicity, or developmental effects have been observed
- toxicity to mammals (mammals): very low toxicity
- in vitro activity [4]: showed in vitro activity
- adverse effects in non-target organisms (earthworms): no adverse effects were observed
- Non-mammals, honey bee (honey bee): 200 μg/bee
- Sensitization (guinea pig): no
- Irritation to eye (rabbit [5]): no
- Turf quality (anthracnose (C. cereale); Ningnanmycin 10WP 0.08 g/m^2, 7 d interval, Aug. 8, 2010): 5
- Turf quality (anthracnose (C. cereale); Ningnanmycin 10WP 0.08 g/m^2, 7 d interval, Aug. 15, 2010): 4
- Turf quality (anthracnose (C. cereale); Ningnanmycin 10WP 0.15 g/m^2, 7 d interval, Aug. 8, 2010): 5
- Turf quality (anthracnose (C. cereale); Ningnanmycin 10WP 0.15 g/m^2, 7 d interval, Aug. 15, 2010): 5
- Turf quality (anthracnose (C. cereale); Ningnanmycin 10WP 0.15 g/m^2, 10 d interval, Aug. 8, 2010): 5
- Turf quality (anthracnose (C. cereale); Ningnanmycin 10WP 0.15 g/m^2, 10 d interval, Aug. 15, 2010): 4
- Turf quality (anthracnose (C. cereale); Ningnanmycin 10WP 0.30 g/m^2, 10 d interval, Aug. 8, 2010): 5
- Turf quality (anthracnose (C. cereale); Ningnanmycin 10WP 0.30 g/m^2, 10 d interval, Aug. 15, 2010): 4
- Turf quality (anthracnose (C. cereale); Ningnanmycin 10WP 0.30 g/m^2, 14 d interval, Aug. 8, 2010): 4
- Turf quality (anthracnose (C. cereale); Ningnanmycin 10WP 0.30 g/m^2, 14 d interval, Aug. 15, 2010): 4
- anthracnose control (in words) (anthracnose (C. cereale); 0.15 g/m^2, 7-day interval): satisfactory level of control
- anthracnose control (in words) (anthracnose (C. cereale); 0.15 g/m^2, 14-day interval): lowest suppression of anthracnose but still provided significant suppression compared to the untreated
- anthracnose control (in words) (anthracnose (C. cereale); 0.30 g/m^2, 7-day interval): highest level of anthracnose control
- anthracnose control (in words) (anthracnose (C. cereale); 0.30 g/m^2, 14-day interval): lowest suppression of anthracnose but still provided significant suppression compared to the untreated
- Anthracnose severity (%) (anthracnose (C. cereale); Ningnanmycin 10WP 0.08 g/m^2, 7 d interval, Aug. 1, 2011): 16%
- Anthracnose severity (%) (anthracnose (C. cereale); Ningnanmycin 10WP 0.08 g/m^2, 7 d interval, Aug. 8, 2011): 4%
- Anthracnose severity (%) (anthracnose (C. cereale); Ningnanmycin 10WP 0.08 g/m^2, 7 d interval, Aug. 15, 2011): 15%
- Anthracnose severity (%) (anthracnose (C. cereale); Ningnanmycin 10WP 0.08 g/m^2, 7 d interval, Jul. 25, 2011): 20%
- Anthracnose severity (%) (anthracnose (C. cereale); Ningnanmycin 10WP 0.15 g/m^2, 7 d interval, Aug. 1, 2011): 9%
- Anthracnose severity (%) (anthracnose (C. cereale); Ningnanmycin 10WP 0.15 g/m^2, 7 d interval, Aug. 8, 2011): 3%
- Anthracnose severity (%) (anthracnose (C. cereale); Ningnanmycin 10WP 0.15 g/m^2, 7 d interval, Aug. 15, 2011): 9%
- Anthracnose severity (%) (anthracnose (C. cereale); Ningnanmycin 10WP 0.15 g/m^2, 7 d interval, Jul. 25, 2011): 17%
- Anthracnose severity (%) (anthracnose (C. cereale); Ningnanmycin 10WP 0.15 g/m^2, 10 d interval, Aug. 1, 2011): 18%
- Anthracnose severity (%) (anthracnose (C. cereale); Ningnanmycin 10WP 0.15 g/m^2, 10 d interval, Aug. 8, 2011): 8%
- Anthracnose severity (%) (anthracnose (C. cereale); Ningnanmycin 10WP 0.15 g/m^2, 10 d interval, Aug. 15, 2011): 17%
- Anthracnose severity (%) (anthracnose (C. cereale); Ningnanmycin 10WP 0.15 g/m^2, 10 d interval, Jul. 25, 2011): 21%
- Anthracnose severity (%) (anthracnose (C. cereale); Ningnanmycin 10WP 0.30 g/m^2, 10 d interval, Aug. 1, 2011): 20%
- Anthracnose severity (%) (anthracnose (C. cereale); Ningnanmycin 10WP 0.30 g/m^2, 10 d interval, Aug. 8, 2011): 3%
- Anthracnose severity (%) (anthracnose (C. cereale); Ningnanmycin 10WP 0.30 g/m^2, 10 d interval, Aug. 15, 2011): 15%
- Anthracnose severity (%) (anthracnose (C. cereale); Ningnanmycin 10WP 0.30 g/m^2, 10 d interval, Jul. 25, 2011): 16%
- Anthracnose severity (%) (anthracnose (C. cereale); Ningnanmycin 10WP 0.30 g/m^2, 14 d interval, Aug. 1, 2011): 14%
- Anthracnose severity (%) (anthracnose (C. cereale); Ningnanmycin 10WP 0.30 g/m^2, 14 d interval, Aug. 8, 2011): 6%
- Anthracnose severity (%) (anthracnose (C. cereale); Ningnanmycin 10WP 0.30 g/m^2, 14 d interval, Aug. 15, 2011): 13%
- Anthracnose severity (%) (anthracnose (C. cereale); Ningnanmycin 10WP 0.30 g/m^2, 14 d interval, Jul. 25, 2011): 20%
- in vitro activity [6]: demonstrated in vitro activity
- in vitro activity (Xanthomonas pruni): did not show any in vitro activity
- Acute toxicity Dermal LD50 (rat [7]): >2,000 mg/Kg mg/kg
- Irritation to skin (rabbit [8]): no
- EC50 (Sclerotinia homoeocarpa; 72 h, isolate 761SHME, radial growth after 72 h, mean of two assays): 0.02 µg/mL (≈ 0.0451 µM)
- EC50 (Sclerotinia homoeocarpa; 72 h, isolate LWC 27, radial growth after 72 h, mean of two assays): 0.01 µg/mL (≈ 0.0226 µM)
- EC50 (Sclerotinia homoeocarpa; 72 h, isolate PST4, radial growth after 72 h, mean of two assays): 0.01 µg/mL (≈ 0.0226 µM)
- EC50 (Sclerotinia homoeocarpa; read-out: mean EC50, mean of three isolates): 0.01 µg/mL (≈ 0.0226 µM)
- EC50 (Colletotrichum cereale; 168 h, isolate ABR1, radial growth after seven days, mean of two assays): 0.36 µg/mL (≈ 0.812 µM)
- EC50 (Colletotrichum cereale; 168 h, isolate ABR12, radial growth after seven days, mean of two assays): 0.24 µg/mL (≈ 0.541 µM)
- EC50 (Colletotrichum cereale; read-out: mean EC50, mean of two isolates): 0.3 µg/mL (≈ 0.677 µM)
- Acute toxicity Oral LD50 (rat [9]; female): 12,100 mg/kg (female)
- Acute toxicity Oral LD50 (rat [9]; male): 6,810 mg/kg (male)
